This note sets out measurements from PMC9516332 (Frontiers in Oncology, 2022).

Each structure is given as a SMILES string.

Assay [1] deals with NCI-H1975 (EGFR p.L858R + p.T790M). In words: Cell viability assay. It is filed as cell-based.
The subject of assay [2] is EGFR double mutants p.ex19del/T790M and p.L858R/T790M. The assay can be described thus: Biochemical kinase assays with EGFR mutants.
A further assay concerns the target MEK2 (Homo sapiens, UniProt P36507). The assay can be described thus: Enzyme-linked immunosorbent assay (ELISA) of enzymatic activity, IC50. It is filed as biochemical. On the technique in general: ELISA stands for enzyme-linked immunosorbent assay.
The next assay concerns MET-altered cell lines. As to conditions: MANOVA.
Another assay addresses T1, ALK (Homo sapiens, UniProt Q9UM73).
T1 construct: purchased Carna Biosciences (only by web pointer)
In words: Biochemical kinase assay (MSA), IC50.

Another assay addresses T2, HER4 (Homo sapiens, UniProt Q15303).
T2 construct: purchased Carna Biosciences (only by web pointer)
The assay can be described thus: Biochemical kinase assay (MSA), IC50.

The target of another assay is T3, EGFR (Homo sapiens, UniProt P00533).
T3 construct: purchased Carna Biosciences (only by web pointer)
T3 sequence (P00533 25-1210): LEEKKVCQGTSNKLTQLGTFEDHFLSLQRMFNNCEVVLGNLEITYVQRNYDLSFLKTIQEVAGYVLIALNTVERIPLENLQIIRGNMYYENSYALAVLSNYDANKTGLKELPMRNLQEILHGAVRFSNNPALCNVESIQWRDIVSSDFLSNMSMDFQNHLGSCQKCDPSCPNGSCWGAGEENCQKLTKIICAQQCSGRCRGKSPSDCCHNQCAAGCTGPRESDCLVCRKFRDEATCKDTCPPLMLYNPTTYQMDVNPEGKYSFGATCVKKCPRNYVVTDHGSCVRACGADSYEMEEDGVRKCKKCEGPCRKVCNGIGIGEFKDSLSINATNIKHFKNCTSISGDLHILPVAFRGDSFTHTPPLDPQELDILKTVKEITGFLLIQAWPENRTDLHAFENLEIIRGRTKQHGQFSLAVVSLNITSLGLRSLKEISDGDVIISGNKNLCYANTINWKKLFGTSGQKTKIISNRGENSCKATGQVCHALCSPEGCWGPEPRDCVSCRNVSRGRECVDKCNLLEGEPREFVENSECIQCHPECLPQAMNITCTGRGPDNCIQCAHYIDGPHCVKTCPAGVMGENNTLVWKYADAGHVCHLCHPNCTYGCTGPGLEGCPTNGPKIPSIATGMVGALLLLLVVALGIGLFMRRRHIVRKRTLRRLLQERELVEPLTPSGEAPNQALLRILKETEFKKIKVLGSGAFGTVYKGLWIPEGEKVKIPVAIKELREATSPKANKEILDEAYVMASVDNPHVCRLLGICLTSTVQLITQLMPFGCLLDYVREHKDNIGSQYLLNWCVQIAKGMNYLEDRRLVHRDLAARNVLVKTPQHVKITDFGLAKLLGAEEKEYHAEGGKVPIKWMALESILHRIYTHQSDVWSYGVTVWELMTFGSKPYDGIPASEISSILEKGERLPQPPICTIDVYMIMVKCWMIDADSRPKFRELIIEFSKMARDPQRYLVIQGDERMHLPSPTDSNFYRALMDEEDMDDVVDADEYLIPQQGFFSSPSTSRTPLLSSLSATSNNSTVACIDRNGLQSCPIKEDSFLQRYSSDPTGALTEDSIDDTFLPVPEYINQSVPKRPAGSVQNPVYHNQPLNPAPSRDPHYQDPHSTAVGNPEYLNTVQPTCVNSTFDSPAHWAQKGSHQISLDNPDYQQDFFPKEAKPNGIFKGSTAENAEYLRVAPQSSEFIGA
The assay can be described thus: Biochemical kinase assay (MSA), IC50.

The next assay has as its target T4, HER2 (Homo sapiens, UniProt P04626).
T4 construct: purchased Carna Biosciences (only by web pointer)
The assay can be described thus: Biochemical kinase assay (MSA), IC50.

The target in another assay is T5, BRK (Homo sapiens, UniProt Q13882).
T5 construct: purchased Carna Biosciences (only by web pointer)
T5 sequence (Q13882 whole entry): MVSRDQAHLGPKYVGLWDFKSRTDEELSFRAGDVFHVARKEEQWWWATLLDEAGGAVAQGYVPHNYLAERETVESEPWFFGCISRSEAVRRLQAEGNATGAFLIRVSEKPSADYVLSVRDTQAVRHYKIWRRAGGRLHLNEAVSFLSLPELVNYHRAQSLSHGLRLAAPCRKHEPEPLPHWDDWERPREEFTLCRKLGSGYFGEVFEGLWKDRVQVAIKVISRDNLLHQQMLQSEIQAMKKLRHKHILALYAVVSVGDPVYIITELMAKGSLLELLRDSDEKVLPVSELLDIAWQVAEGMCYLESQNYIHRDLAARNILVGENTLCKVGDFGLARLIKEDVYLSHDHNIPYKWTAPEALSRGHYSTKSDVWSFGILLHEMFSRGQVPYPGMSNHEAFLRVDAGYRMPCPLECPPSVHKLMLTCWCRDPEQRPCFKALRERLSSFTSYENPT
The assay can be described thus: Biochemical kinase assay (MSA), IC50.

The target of another assay is T6, RET (Homo sapiens, UniProt P07949).
T6 construct: purchased Carna Biosciences (only by web pointer)
In words: Biochemical kinase assay (MSA), IC50. The conditions noted are these: biochemical assays.

Another assay addresses T7, FLT3 (Homo sapiens, UniProt P36888).
T7 construct: purchased Carna Biosciences (only by web pointer)
In words: Biochemical kinase assay (MSA), IC50. The conditions noted are these: biochemical assays.

In assay [3] the test system is FLT3 ITD-mutant cell lines MOLM-13 and MV4-11. The assay can be described thus: Cell viability assay. It is filed as cell-based.
In another assay the target is T8, ROS (Homo sapiens, UniProt P08922).
T8 construct: purchased Carna Biosciences (only by web pointer)
The assay can be described thus: Biochemical kinase assay (MSA), IC50. The conditions noted are these: biochemical assays.

Sequence of MEK2 (P36507 whole entry): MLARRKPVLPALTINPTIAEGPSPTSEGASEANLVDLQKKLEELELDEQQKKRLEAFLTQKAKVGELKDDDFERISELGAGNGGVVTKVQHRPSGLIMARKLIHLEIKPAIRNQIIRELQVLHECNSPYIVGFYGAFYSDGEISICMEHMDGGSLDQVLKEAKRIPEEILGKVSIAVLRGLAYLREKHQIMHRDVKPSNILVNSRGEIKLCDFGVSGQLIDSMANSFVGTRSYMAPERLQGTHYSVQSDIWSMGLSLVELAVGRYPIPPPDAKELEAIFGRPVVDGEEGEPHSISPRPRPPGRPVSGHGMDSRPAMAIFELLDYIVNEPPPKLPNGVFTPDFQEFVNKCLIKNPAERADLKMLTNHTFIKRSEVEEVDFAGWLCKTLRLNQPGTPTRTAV
T1 sequence (Q9UM73 19-1620): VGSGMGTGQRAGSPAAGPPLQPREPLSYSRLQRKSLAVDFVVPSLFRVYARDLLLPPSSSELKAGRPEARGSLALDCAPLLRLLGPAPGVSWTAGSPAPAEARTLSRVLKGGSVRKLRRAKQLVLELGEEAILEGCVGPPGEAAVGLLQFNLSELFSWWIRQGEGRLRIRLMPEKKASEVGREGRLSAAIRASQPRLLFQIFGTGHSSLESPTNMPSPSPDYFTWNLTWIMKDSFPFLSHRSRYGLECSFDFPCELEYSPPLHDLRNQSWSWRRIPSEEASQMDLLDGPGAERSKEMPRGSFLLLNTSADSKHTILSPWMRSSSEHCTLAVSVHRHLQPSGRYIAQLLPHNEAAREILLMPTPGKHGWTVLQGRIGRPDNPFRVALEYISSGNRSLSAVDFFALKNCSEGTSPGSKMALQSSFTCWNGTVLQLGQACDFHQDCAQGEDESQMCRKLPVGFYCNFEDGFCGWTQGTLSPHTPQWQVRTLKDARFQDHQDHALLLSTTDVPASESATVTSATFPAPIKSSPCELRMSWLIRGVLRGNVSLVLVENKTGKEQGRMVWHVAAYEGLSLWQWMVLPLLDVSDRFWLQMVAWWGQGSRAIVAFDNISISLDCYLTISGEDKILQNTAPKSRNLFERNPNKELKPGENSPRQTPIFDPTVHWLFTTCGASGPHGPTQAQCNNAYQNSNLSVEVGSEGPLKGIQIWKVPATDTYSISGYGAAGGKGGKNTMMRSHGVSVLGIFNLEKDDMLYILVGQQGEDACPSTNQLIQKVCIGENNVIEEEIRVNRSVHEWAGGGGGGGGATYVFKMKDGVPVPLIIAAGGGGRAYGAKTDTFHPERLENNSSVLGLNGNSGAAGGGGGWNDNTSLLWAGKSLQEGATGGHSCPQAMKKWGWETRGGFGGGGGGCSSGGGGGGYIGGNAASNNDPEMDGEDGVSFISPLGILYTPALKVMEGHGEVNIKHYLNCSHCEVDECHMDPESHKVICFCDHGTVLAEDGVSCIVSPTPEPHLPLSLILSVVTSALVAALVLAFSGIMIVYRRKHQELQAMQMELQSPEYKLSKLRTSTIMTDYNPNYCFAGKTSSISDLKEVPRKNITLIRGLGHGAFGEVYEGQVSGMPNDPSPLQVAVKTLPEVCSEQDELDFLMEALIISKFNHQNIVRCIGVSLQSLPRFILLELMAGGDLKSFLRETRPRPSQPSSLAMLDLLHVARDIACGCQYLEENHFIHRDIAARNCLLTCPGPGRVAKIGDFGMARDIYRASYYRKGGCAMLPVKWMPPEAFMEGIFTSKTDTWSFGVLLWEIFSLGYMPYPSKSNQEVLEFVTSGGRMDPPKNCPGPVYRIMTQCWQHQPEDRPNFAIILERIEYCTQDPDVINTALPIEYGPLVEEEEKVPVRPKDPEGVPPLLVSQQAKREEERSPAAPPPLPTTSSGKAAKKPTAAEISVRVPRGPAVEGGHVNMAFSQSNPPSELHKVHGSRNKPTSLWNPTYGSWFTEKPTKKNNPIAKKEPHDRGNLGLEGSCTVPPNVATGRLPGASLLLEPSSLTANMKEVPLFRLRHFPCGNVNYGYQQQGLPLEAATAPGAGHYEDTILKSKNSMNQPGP
T7 sequence (P36888 27-993): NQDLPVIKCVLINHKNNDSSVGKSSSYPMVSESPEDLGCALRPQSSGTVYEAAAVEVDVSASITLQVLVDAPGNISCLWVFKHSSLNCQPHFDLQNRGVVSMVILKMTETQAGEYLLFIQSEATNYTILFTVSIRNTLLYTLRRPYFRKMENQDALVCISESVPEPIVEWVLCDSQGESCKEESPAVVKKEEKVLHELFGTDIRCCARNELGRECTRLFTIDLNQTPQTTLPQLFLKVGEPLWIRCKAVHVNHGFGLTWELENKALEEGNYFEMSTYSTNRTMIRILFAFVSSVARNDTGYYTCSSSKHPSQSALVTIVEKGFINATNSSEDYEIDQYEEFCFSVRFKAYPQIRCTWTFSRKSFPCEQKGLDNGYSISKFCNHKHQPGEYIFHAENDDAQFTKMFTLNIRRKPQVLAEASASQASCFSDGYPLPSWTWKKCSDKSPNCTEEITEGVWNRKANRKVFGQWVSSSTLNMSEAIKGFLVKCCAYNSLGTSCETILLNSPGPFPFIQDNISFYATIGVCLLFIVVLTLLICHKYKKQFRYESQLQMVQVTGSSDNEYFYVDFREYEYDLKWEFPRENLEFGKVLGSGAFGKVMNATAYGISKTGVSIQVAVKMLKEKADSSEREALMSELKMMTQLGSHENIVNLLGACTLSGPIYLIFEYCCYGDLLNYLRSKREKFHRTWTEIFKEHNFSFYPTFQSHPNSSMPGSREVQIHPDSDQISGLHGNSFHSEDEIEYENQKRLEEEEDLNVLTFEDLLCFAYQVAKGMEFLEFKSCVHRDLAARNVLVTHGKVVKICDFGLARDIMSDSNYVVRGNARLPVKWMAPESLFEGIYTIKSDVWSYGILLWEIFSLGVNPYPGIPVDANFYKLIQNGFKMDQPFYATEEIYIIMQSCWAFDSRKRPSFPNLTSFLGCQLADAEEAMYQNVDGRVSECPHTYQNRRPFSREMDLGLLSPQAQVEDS

Turning to `COc1cc2ncnc(Nc3ccc(F)c(Cl)c3)c2cc1NC(=O)/C=C/CN1CCCCC1` [dacomitinib], the “lower potency in NCI-H1975 compared to osimertinib” value in assay [1] was found to be 28 fold. Further, in assay [2], the “lower potency on double mutants (p.T790M plus sensitizing mutation) than on wild-type EGFR and sensitizing mutants” value worked out at 30 fold. On to `O=C(c1ccc(F)c(F)c1Nc1ccc(I)cc1F)N1CC(O)([C@@H]2CCCCN2)C1` [cobimetinib], for which, at MEK2, half-maximal inhibition (IC50) was put at 190 nM. This lies in the sub-micromolar range. For the molecule `CNC(=O)c1ccc(-c2cnc3ncc(Cc4ccc5ncccc5c4)n3n2)cc1F` [capmatinib], in the assay with MET-altered cell lines, the “higher potency in MET-altered compared to MET wild-type cell lines” value was “over 10,000 fold”. Also, the IC50 – broadly, the concentration that inhibits the measured activity by half – against ALK was above 1000 nM. Regarding `Cc1cc(Nc2ncnc3ccc(NC4=NC(C)(C)CO4)cc23)ccc1Oc1ccn2ncnc2c1` [tucatinib], the IC50 against HER4 is 95 nM; on EGFR, 6.7 nM; at HER2, 3.3 nM. In the case of `C=CC(=O)N1CCC([C@@H]2CCNc3c(C(N)=O)c(-c4ccc(Oc5ccccc5)cc4)nn32)CC1` [zanubrutinib], at BRK, the IC50 stood at 18 nM. This counts as double-digit nanomolar. Turning to `Cn1cnc2c(F)c(Nc3ccc(Br)cc3F)c(C(=O)NOCCO)cc21` [binimetinib], the IC50 on MEK2 is above 1000 nM.

Regarding `COc1ccc(CN2C3CC2CN(c2ccc(-c4cc(OCC(C)(C)O)cn5ncc(C#N)c45)cn2)C3)cn1` [selpercatinib], the “potency on RET compared to pralsetinib” value at RET is “almost two-fold more potent”.

For `CCc1nc(C(N)=O)c(Nc2ccc(N3CCC(N4CCN(C)CC4)CC3)c(OC)c2)nc1NC1CCOCC1` [gilteritinib], the “potency on FLT3 compared to midostaurin” value on FLT3 is listed as “around eight-fold more potent”. For the same molecule, the “potency in the FLT3 ITD-mutant cell lines compared to midostaurin” value in [3] (on average) was “eight times more potent”. As to `O=C(Nc1cnn2ccc(N3CCC[C@@H]3c3cc(F)ccc3F)nc12)N1CC[C@H](O)C1` [larotrectinib], the “higher IC50 on ROS1 compared to TRKA-C” value on ROS is listed as “around 100 fold”. The same molecule registered an IC50 against ALK above 1000 nM. Moreover, the “higher IC50 in MOLM-13 and MV4-11 compared to AP-1060” value in assay [3] (cell viability) was “more than 1000 fold”.
